The values that follow come from patent US10183936B2, “Hepatitis B core protein allosteric modulators” (priority 2014, dated 2019).

Structures are written as SMILES.

Data set [1] has as its system HBV viral production in AD38 cells. Put plainly: Viral load production in AD38 cells by quantitative PCR of the HBV core sequence in supernatant. Type of data set: cell-based. To be noted: Hepatitis B virus, 144 h; 10 μM compound, 6 days at 37° C., viral load in supernatant compared against DMSO control wells; read-out: AD38 Viral Load (CpAM/DMSO %) at 10 μM. An outline of the steps:
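AD38 cells seeded at 50,000/well, treated 6 days at 37° C with compound added as 10× solution in 10% DMSO. HBV core sequence in clarified supernatant quantified by TaqMan qPCR against known standards; viral load compared with DMSO control wells.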

For a further data set, the system named is AD38 cells. Put plainly: Viability of AD38 cells (Promega CellTiter-Glo) at the end of compound treatment. Type of data set: cell-based. The note with it: 10 μM compound, 6 days, luminescence normalized against DMSO control wells (controls being 100%). An outline of the steps:
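AD38 cells seeded at 50,000/well received compound from a 10× solution in 10% DMSO and were incubated 6 days at 37° C. Viability was then read by CellTiter-Glo luminescence in tetracycline-free medium with 2% FBS and 1% DMSO, normalized to DMSO control wells (100%) and reported as percent viability.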
A general note: In ATP-based viability assays light output follows the ATP content of the culture.

As to `Cc1c(C(=O)NCCc2cncs2)ccc2c1NC(=O)c1ccccc1S2` [Compound 1561], the activity at 10 µM in data set [1] turned out to be 8%. In addition, in the data set with AD38 cells, the “AD38 Viability Normalized Result (CPAM/DMSO %) at 10 μM” value came to 118%.
As to `O=C1Nc2c(cc(F)c(C(=O)NCCc3cncnc3)c2F)Sc2ccccc21` [Compound 1562], in data set [1], the activity at 10 µM was 25%. The “AD38 Viability Normalized Result (CPAM/DMSO %) at 10 μM” value in the data set with AD38 cells came to 89%.
Take `O=C1Nc2c(cc(F)c(C(=O)NCCc3cncs3)c2F)Sc2ccccc21` [Compound 1563]: the activity at 10 µM in data set [1] came out at 41%. For the same compound, the “AD38 Viability Normalized Result (CPAM/DMSO %) at 10 μM” value in the data set on AD38 cells stood at 93%.
In the same order, the values of `CCN1c2ccc(C(=O)NCc3cnco3)cc2NC(=O)c2ccccc21` [Compound 1564] are 10% and 119%.
`CCN1c2ccc(C(=O)NCCc3cncnc3)cc2NC(=O)c2ccccc21` [Compound 1565]: in data set [1], the activity at 10 µM turned out to be 4%. The “AD38 Viability Normalized Result (CPAM/DMSO %) at 10 μM” value in the data set on AD38 cells was 103%.
With `CCN1c2ccc(C(=O)NCCc3cncs3)cc2NC(=O)c2ccccc21` [Compound 1566], the activity at 10 µM in data set [1] was 31%. The “AD38 Viability Normalized Result (CPAM/DMSO %) at 10 μM” value in the data set on AD38 cells came to 91%.
The matching figures for `Cc1nnc(CCNC(=O)c2ccc3c(c2)NC(=O)c2ccccc2S3)s1` [Compound 1567]: 1% and 109%.
As to `Nc1nnc(CCNC(=O)c2ccc3c(c2)NC(=O)c2ccccc2S3)s1` [Compound 1568], the activity at 10 µM in data set [1] was determined as 1%. Further, in the data set on AD38 cells, the “AD38 Viability Normalized Result (CPAM/DMSO %) at 10 μM” value was 100%.
With `O=C(NCCc1cccnn1)c1ccc2c(c1)NC(=O)c1ccccc1S2` [Compound 1569], in data set [1], the activity at 10 µM amounted to 1%. The “AD38 Viability Normalized Result (CPAM/DMSO %) at 10 μM” value in the data set with AD38 cells came out at 114%.
On to `O=C(NCCc1nnc(-c2ccco2)[nH]1)c1ccc2c(c1)NC(=O)c1ccccc1S2` [Compound 1570], for which the activity at 10 µM in data set [1] turned out to be 2%. In the data set on AD38 cells, the “AD38 Viability Normalized Result (CPAM/DMSO %) at 10 μM” value was 115%.
Take `O=C(NCc1nncs1)c1ccc2c(c1)NC(=O)c1ccccc1S2` [Compound 1571]: the activity at 10 µM in data set [1] came to 35%. In addition, the “AD38 Viability Normalized Result (CPAM/DMSO %) at 10 μM” value with AD38 cells was found to be 117%.
As for `O=C(NCc1ccncc1)c1ccc2c(c1)NC(=O)c1ccccc1S2` [Compound 1572], the activity at 10 µM in data set [1] worked out at 5%. For the same compound, the “AD38 Viability Normalized Result (CPAM/DMSO %) at 10 μM” value with AD38 cells is 116%.
As to `CN1C(=O)c2ccccc2Sc2ccc(C(=O)NCc3cncs3)cc21` [Compound 1573], in data set [1], the activity at 10 µM is 46%. Further, the “AD38 Viability Normalized Result (CPAM/DMSO %) at 10 μM” value in the data set with AD38 cells was determined as 126%.
As for `CN1C(=O)c2ccccc2Sc2ccc(C(=O)NCc3cncnc3)cc21` [Compound 1574], the activity at 10 µM in data set [1] was 78%. Further, the “AD38 Viability Normalized Result (CPAM/DMSO %) at 10 μM” value with AD38 cells was 109%.
The matching figures for `NC(=O)c1ccc2c(c1)NC(=O)c1ccccc1[S+]2[O-]` (centres unmarked) [Compound 1575]: 90% and 108%.
On to `Cc1nnc(CNC(=O)c2ccc3c(c2)NC(=O)c2ccccc2S3)o1` [Compound 1578], for which, in data set [1], the activity at 10 µM is 33%. Further, the “AD38 Viability Normalized Result (CPAM/DMSO %) at 10 μM” value in the data set on AD38 cells was found to be 100%.
For `O=C(NCCc1cnco1)c1ccc2c(c1)NC(=O)c1c(F)cccc1S2` [Compound 1580], the activity at 10 µM in data set [1] is 59%. For the same compound, the “AD38 Viability Normalized Result (CPAM/DMSO %) at 10 μM” value in the data set on AD38 cells was found to be 89%.
As to `CN1c2ccc(C(=O)NCc3cncs3)cc2NC(=O)c2ccccc21` [Compound 1581], in data set [1], the activity at 10 µM is 3%. Further, in the data set with AD38 cells, the “AD38 Viability Normalized Result (CPAM/DMSO %) at 10 μM” value is 97%.
`NC(=O)CSc1nnc(CCNC(=O)c2ccc3c(c2)NC(=O)c2ccccc2S3)o1` [Compound 1582]: in data set [1], the activity at 10 µM was found to be 8%. Besides, the “AD38 Viability Normalized Result (CPAM/DMSO %) at 10 μM” value in the data set on AD38 cells is recorded as 112%.
Regarding `Cc1nnc(CCNC(=O)c2ccc3c(c2)NC(=O)c2ccccc2S3)[nH]1` [Compound 1583], in data set [1], the activity at 10 µM amounted to 41%. For the same compound, the “AD38 Viability Normalized Result (CPAM/DMSO %) at 10 μM” value with AD38 cells came out at 121%.
On to `O=C(NCc1cscn1)c1ccc2c(c1)NC(=O)c1ccccc1S2` [Compound 1584], for which the activity at 10 µM in data set [1] was 52%. In addition, the “AD38 Viability Normalized Result (CPAM/DMSO %) at 10 μM” value with AD38 cells came to 95%.
In the case of `O=C(NCc1ccncn1)c1ccc2c(c1)NC(=O)c1ccccc1S2` [Compound 1585], the activity at 10 µM in data set [1] came to 66%. Moreover, the “AD38 Viability Normalized Result (CPAM/DMSO %) at 10 μM” value in the data set with AD38 cells was determined as 87%.
With `O=C(NCc1cnccn1)c1ccc2c(c1)NC(=O)c1ccccc1S2` [Compound 1586], in data set [1], the activity at 10 µM is 23%. In addition, the “AD38 Viability Normalized Result (CPAM/DMSO %) at 10 μM” value in the data set on AD38 cells was found to be 112%.
For the compound `O=C(NCc1ncccn1)c1ccc2c(c1)NC(=O)c1ccccc1S2` [Compound 1587], in data set [1], the activity at 10 µM stood at 78%. For the same compound, the “AD38 Viability Normalized Result (CPAM/DMSO %) at 10 μM” value in the data set with AD38 cells turned out to be 92%.
Take `Cc1ncc(CNC(=O)c2ccc3c(c2)NC(=O)c2ccccc2S3)s1` [Compound 1588]: the activity at 10 µM in data set [1] is 0%. Also, the “AD38 Viability Normalized Result (CPAM/DMSO %) at 10 μM” value with AD38 cells turned out to be 98%.
The matching figures for `O=C(NCc1cnc(Cl)s1)c1ccc2c(c1)NC(=O)c1ccccc1S2` [Compound 1589]: 1% and 85%.
As for `O=C(NCc1cnc(-c2ccccc2)s1)c1ccc2c(c1)NC(=O)c1ccccc1S2` [Compound 1590], the activity at 10 µM in data set [1] came to 1%. Also, the “AD38 Viability Normalized Result (CPAM/DMSO %) at 10 μM” value with AD38 cells amounted to 96%.
The matching figures for `O=C(NCc1cccnc1)c1ccc2c(c1)NC(=O)c1ccccc1C2` [Compound 1591]: 13% and 111%.
Turning to `O=C(NCC1CCCO1)c1ccc2c(c1)NC(=O)c1ccccc1S2` (centres unmarked) [Compound 1592], the activity at 10 µM in data set [1] worked out at 50%. Further, the “AD38 Viability Normalized Result (CPAM/DMSO %) at 10 μM” value in the data set with AD38 cells is on record as 102%.
As to `O=C(NCc1cncs1)c1ccc2c(c1)NC(=O)c1ccccc1O2` [Compound 1593], in data set [1], the activity at 10 µM was determined as 3%. In addition, in the data set on AD38 cells, the “AD38 Viability Normalized Result (CPAM/DMSO %) at 10 μM” value came to 133%.
In the same order, the values of `O=C(NCc1cccnc1)c1ccc2c(c1)NC(=O)c1ccccc1O2` [Compound 1594] are 4% and 109%.
For the compound `O=C(NCc1cncnc1)c1ccc2c(c1)NC(=O)c1ccccc1O2` [Compound 1595], the activity at 10 µM in data set [1] came out at 3%. Besides, the “AD38 Viability Normalized Result (CPAM/DMSO %) at 10 μM” value with AD38 cells turned out to be 108%.
The matching figures for `O=C1Nc2cc(S(=O)(=O)NCCc3cncnc3)ccc2Sc2ccccc21` [Compound 1597]: 64% and 87%.
For `O=C(NCCc1cncs1)c1ccc2c(c1)NC(=O)c1c(F)cccc1S2` [Compound 1598], the activity at 10 µM in data set [1] stood at 61%. In addition, the “AD38 Viability Normalized Result (CPAM/DMSO %) at 10 μM” value in the data set on AD38 cells worked out at 93%.
Take `O=C(NCc1nnc[nH]1)c1ccc2c(c1)NC(=O)c1ccccc1S2` [Compound 1599]: in data set [1], the activity at 10 µM is 72%. Also, in the data set on AD38 cells, the “AD38 Viability Normalized Result (CPAM/DMSO %) at 10 μM” value amounted to 101%.
Take `Cc1ncsc1CNC(=O)c1ccc2c(c1)NC(=O)c1ccccc1S2` [Compound 1600]: the activity at 10 µM in data set [1] came to 12%. In addition, the “AD38 Viability Normalized Result (CPAM/DMSO %) at 10 μM” value with AD38 cells is 108%.
The matching figures for `CC(=O)N1CCC(CNC(=O)c2ccc3c(c2)NC(=O)c2ccccc2S3)CC1` [Compound 1601, N-((1-acetylpiperidin-4-yl)methyl)-11-oxo-10, 11-dihydrodibenzo [b,f] [1,4] thiazepine-8-carboxamide]: 62% and 106%.
The matching figures for `O=C(NCc1cncs1)c1ccc2c(c1)NC(=O)c1ccccc1N2` [Compound 1602, 11-oxo-N-(thiazol-5-ylmethyl)-10, 11-dihydro-5H-dibenzo [b,e] [1,4] diazepine-8-carboxamide]: 38% and 116%.
The matching figures for `Cc1nnc(CCNC(=O)c2ccc3c(c2)NC(=O)c2ccccc2S3)o1` [Compound 1603]: 6% and 91%.
Consider `CCc1ncc(CNC(=O)c2ccc3c(c2)NC(=O)c2ccccc2S3)s1` [Compound 1604], for which the activity at 10 µM in data set [1] was found to be 0%. The “AD38 Viability Normalized Result (CPAM/DMSO %) at 10 μM” value with AD38 cells was 105%.
For the compound `O=C(NCc1scnc1-c1ccccc1)c1ccc2c(c1)NC(=O)c1ccccc1S2` [Compound 1605], in data set [1], the activity at 10 µM was 25%. In addition, the “AD38 Viability Normalized Result (CPAM/DMSO %) at 10 μM” value with AD38 cells was found to be 106%.
As to `O=C(NCC1CCOC1)c1ccc2c(c1)NC(=O)c1ccccc1S2` (centres unmarked) [Compound 1606], the activity at 10 µM in data set [1] is 7%. Also, the “AD38 Viability Normalized Result (CPAM/DMSO %) at 10 μM” value with AD38 cells worked out at 104%.
Turning to `O=C(NCC1CCOCC1)c1ccc2c(c1)NC(=O)c1ccccc1S2` [Compound 1607], the activity at 10 µM in data set [1] stood at 14%. Further, the “AD38 Viability Normalized Result (CPAM/DMSO %) at 10 μM” value in the data set with AD38 cells is on record as 93%.
For `Cl.O=C(NCC1CCNC1)c1ccc2c(c1)NC(=O)c1ccccc1S2` (centres unmarked) [Compound 1608, 11-oxo-N-(pyrrolidin-3-ylmethyl)-10, 11-dihydrodibenz[b,f] [1,4] thiazepine-8-carboxamide hydrochloride], in data set [1], the activity at 10 µM is 63%. In addition, the “AD38 Viability Normalized Result (CPAM/DMSO %) at 10 μM” value with AD38 cells is recorded as 103%.
In the same order, the values of `Cl.O=C(NCC1CCNCC1)c1ccc2c(c1)NC(=O)c1ccccc1S2` [Compound 1609, 11-oxo-N-(piperidin-4-ylmethyl)-10, 11-dihydrodibenzo [b,f] [1,4] thiazepine-8-carboxamide hydrochloride] are 68% and 99%.
`CC(C)c1ncc(CNC(=O)c2ccc3c(c2)NC(=O)c2ccccc2S3)s1` [Compound 1611]: the activity at 10 µM in data set [1] was 0%. The “AD38 Viability Normalized Result (CPAM/DMSO %) at 10 μM” value in the data set with AD38 cells is 130%.
